These results are taken from patent US6124323A, “4-substituted piperidine analogs and their use as subtype selective NMDA receptor antagonists” (Warner-Lambert Company, priority 1998, dated 2000).

pIC50: −log10 of the molar value. Counter-ions that a name gives are not always drawn. Like-named read-outs stand apart in the source and are kept apart here. Some results are limits rather than exact numbers.

What all share (type): cell-based
Assay [1] concerns the target T1, NMDA receptor subunits 1A/2A (Rattus norvegicus, UniProt P35439+Q00959).
T1 construct: expressed in transfected cells; host or cells: Xenopus laevis oocytes (cRNA injection; clones from Dr. P. H. Seeburg)
The experiment in a line: Electrophysiological assay at NMDA receptor subunits expressed in Xenopus oocytes, 1A/2A. As to conditions: glutamate 100 μm and glycine 1-100 μm. The method, then: (§1) Many of the properties of native NMDA receptors are seen in recombinant homomeric NR1 receptors. These properties are altered by the NR2 subunits. Recombinant NMDA receptors expressed in Xenopus oocytes have been studied by voltage-clamp recording, as has developmental and regional expression of the mRNAs encoding NMDA receptor subunits. Electrophysiological assays were utilized to characterize the actions of compounds at NMDA receptors expressed in Xenopus oocytes. The compounds were assayed at four subunit combinations of cloned rat NMDA receptors, corresponding to three putative NMDA receptor subtypes [Moriyoshi, et al. Nature 1991, 354, 31-37; Monyer et al, Science 1992, 256, 1217-1221; Kutsuwada et al, Nature 1992, 358, 36-41; Sugihara et al, Biochem. Biophys Res. Commun. 1992, 185, 826-832].
(§2) Electrophysiological Assays at NMDA Receptor Subunits
(§3) Preparation of RNA. cDNA clones encoding the NR1A, NR2A, NR2B, NR2C and NR2D rat NMDA receptor subtypes were provided by Dr. P. H. Seeburg (see, Moriyoshi et al., Nature (Lond.) 354:31-37 (1991); Kutsuwada et al., Nature (Lond.) 358:36-41 (1992) Monyer et al., Science (Washington, D.C.) 256:1217-1221 (1992); Ikeda et al., FEBS Lett. 313:34-38 (1992); Ishii et al., J. Biol. Chem. 268:2836-2843 (1993) for details of these clones or their mouse homologs). The clones were transformed into appropriate host bacteria and plasmid preparations were made with conventional DNA purification techniques. A sample of each clone was linearized by restriction enzyme digestion and cRNA was synthesized with T3 RNA polymerase. The cRNA was diluted to 400 ng/μl and stored in 1 μl aliquots at -80° C. until injection.
(§4) The Xenopus oocyte expression system. Mature female Xenopus laevis were anaesthetized (20-40 min) using 0.15% 3-aminobenzoic acid ethyl ester (MS-222) and 2-4 ovarian lobes were surgically removed. Oocytes at developmental stages IV-VI (Dumont, J. N., J. Morphol. 136:153-180 (1972)), were dissected from the ovary still surrounded by enveloping ovarian tissues. Follicle-enclosed oocytes were micro-injected with 1:1 mixtures of cRNA:NR1A+NR2A, 2B, 2C or 2D; injecting ~2,5, or 20 ng of RNA encoding each receptor subunit. NR1A encoding cRNA was injected alone at ~20 ng. Oocytes were stored in Barth's medium containing (in mM):NaCl, 88; KCl, 1; CaCl2, 0.41; Ca(NO3)2, 0.33; MgSO4, 0.82 NaHCO3, 2.4; HEPES 5, pH 7.4, with 0.1 mg/ml gentamicin sulphate. While oocytes were still surrounded by enveloping ovarian tissues the Barth's medium was supplemented with 0.1% bovine serum. Oocytes were defolliculated 1-2 days following injections by treatment with collagenase (0.5 mg/ml Sigma Type I for 0.5-1 hr) (Miledi and Woodward, J. Physiol. (Lond.) 416:601-621 (1989)) and subsequently stored in serum-free medium.
(§5) Electrical recordings were made using a conventional two-electrode voltage clamp (Dagan TEV-200) over periods ranging between 3-21 days following injection. (Woodward et al., Mol. Pharmacol. 41: 89-103 (1992)). Oocytes were placed in a 0.1 ml recording chamber continuously perfused (5-15 ml min^-1 ) with frog Ringer's solution containing (in mM):NaCl, 115; KCl, 2; CaCl2, 1.8; HEPES, 5; pH 7.4. Drugs were applied by bath perfusion. Using oocytes expressing different subunit combinations of NMDA receptor, NMDA currents were activated by co-application of glutamate (100 μm) and glycine (1-100 μm). Inhibitory potency of the novel antagonists was assessed on responses elicited by fixed concentrations of glutamate and glycine, by measuring reductions in current induced by progressively increasing concentrations of antagonist. Concentration-inhibition curves were fit with equation 1.
(§6) I/Icontrol =1/(1+([antagonist]/10^-pIC50)^n) Eq. 1
(§7) in which Icontrol is the current evoked by agonists alone, pIC50 =-log IC50, IC50 is the concentration of antagonist that produces half maximal inhibition, and n is the slope factor. (De Lean et al., Am. J. Physiol. 235:E97-102 (1978)). […]

The target of assay [2] is T2, NMDA receptor subunits 1A/2B (Rattus norvegicus, UniProt P35439+Q00960).
T2 construct: expressed in transfected cells; host or cells: Xenopus laevis oocytes (cRNA injection; clones from Dr. P. H. Seeburg)
T2 sequence (Q00960 27-1482, other chains not shown): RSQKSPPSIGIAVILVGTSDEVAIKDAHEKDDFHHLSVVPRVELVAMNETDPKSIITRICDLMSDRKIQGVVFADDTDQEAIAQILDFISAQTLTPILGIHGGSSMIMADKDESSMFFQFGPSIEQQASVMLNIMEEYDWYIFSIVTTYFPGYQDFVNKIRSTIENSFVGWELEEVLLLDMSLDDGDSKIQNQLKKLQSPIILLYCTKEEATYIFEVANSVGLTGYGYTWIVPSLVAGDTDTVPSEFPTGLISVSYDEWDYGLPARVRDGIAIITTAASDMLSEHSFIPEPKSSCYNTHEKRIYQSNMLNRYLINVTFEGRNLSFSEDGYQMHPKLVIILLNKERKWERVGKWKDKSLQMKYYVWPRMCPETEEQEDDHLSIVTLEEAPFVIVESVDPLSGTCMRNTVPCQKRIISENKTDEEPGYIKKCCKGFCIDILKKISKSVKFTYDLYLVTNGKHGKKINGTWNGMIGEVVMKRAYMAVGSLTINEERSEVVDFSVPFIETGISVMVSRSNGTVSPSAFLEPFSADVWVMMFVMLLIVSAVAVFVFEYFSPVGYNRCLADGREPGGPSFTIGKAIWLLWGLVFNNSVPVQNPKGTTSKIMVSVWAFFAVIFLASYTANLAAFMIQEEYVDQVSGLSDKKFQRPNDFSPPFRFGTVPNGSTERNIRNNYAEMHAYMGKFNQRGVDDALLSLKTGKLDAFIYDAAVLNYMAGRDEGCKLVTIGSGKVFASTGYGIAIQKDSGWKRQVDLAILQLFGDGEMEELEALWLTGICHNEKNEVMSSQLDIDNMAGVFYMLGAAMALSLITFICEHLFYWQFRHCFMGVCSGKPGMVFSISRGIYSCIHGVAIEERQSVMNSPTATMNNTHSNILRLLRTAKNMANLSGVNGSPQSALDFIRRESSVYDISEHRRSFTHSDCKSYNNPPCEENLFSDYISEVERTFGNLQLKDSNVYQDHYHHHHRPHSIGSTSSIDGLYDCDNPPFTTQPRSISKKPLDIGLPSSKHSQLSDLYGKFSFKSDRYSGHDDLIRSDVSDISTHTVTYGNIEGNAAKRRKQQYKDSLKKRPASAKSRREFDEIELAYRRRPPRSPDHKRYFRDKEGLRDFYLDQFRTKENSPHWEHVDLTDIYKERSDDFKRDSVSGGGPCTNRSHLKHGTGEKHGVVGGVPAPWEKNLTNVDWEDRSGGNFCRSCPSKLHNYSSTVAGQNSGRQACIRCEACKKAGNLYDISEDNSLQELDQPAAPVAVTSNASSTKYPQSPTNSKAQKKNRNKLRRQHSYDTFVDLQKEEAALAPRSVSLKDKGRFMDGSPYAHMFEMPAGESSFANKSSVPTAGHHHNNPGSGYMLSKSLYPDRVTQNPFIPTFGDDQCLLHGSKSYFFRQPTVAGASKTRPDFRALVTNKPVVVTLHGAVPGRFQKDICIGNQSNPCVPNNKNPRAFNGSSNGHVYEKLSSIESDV
The experiment in a line: Electrophysiological assay at NMDA receptor subunits expressed in Xenopus oocytes, 1A/2B. The method, then: as §1, §2, §3, §4, §5, §6, §7

The target of assay [3] is T3, NMDA receptor subunits 1A/2C (Rattus norvegicus, UniProt P35439+Q00961).
T3 construct: expressed in transfected cells; host or cells: Xenopus laevis oocytes (cRNA injection; clones from Dr. P. H. Seeburg)
T3 sequence (Q00961 20-1237, other chains not shown): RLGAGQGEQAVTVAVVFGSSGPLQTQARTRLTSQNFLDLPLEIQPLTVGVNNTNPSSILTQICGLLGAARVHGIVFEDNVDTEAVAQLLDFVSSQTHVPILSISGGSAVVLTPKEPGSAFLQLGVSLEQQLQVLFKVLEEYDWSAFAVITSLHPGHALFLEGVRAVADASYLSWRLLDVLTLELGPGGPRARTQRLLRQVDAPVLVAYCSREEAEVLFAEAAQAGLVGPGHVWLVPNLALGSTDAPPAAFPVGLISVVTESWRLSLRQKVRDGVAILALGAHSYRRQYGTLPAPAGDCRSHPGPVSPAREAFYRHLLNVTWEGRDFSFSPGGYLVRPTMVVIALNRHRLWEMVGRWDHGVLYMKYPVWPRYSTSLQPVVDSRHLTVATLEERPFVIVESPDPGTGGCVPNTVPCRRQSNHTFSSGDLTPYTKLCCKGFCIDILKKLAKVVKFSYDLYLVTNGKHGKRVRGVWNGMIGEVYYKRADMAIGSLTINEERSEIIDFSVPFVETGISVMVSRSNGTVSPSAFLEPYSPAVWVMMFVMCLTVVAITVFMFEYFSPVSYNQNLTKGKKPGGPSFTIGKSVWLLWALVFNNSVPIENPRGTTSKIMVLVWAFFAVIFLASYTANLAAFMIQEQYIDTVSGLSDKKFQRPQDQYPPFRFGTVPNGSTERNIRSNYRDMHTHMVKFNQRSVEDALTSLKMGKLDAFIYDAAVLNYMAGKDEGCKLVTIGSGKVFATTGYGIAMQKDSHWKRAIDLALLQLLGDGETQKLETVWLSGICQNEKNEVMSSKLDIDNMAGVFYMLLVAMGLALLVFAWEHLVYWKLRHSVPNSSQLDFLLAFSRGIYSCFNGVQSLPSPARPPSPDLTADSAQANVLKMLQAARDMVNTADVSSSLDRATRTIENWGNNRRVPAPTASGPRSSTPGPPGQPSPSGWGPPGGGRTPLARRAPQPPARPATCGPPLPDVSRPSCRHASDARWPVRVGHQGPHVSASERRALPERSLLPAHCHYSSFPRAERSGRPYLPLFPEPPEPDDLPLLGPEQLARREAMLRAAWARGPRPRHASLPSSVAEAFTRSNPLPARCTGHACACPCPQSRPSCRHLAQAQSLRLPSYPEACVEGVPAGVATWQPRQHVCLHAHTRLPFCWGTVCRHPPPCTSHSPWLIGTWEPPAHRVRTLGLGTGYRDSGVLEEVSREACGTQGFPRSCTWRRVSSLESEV
The experiment in a line: Electrophysiological assay at NMDA receptor subunits expressed in Xenopus oocytes, 1A/2C. The method, then: as §1, §2, §3, §4, §5, §6, §7

[4] abbreviates: Xenopus oocytes, glutamate 100 μm and glycine 1-100 μm, read-out: Subunits IC50, 1A/2B.
Where [5] appears, read: Xenopus oocytes, glutamate 100 μm and glycine 1-100 μm, read-out: Subunits IC50, 1A/2C.

T1 sequence (Q00959 20-1464 limits assumed, other chains not shown): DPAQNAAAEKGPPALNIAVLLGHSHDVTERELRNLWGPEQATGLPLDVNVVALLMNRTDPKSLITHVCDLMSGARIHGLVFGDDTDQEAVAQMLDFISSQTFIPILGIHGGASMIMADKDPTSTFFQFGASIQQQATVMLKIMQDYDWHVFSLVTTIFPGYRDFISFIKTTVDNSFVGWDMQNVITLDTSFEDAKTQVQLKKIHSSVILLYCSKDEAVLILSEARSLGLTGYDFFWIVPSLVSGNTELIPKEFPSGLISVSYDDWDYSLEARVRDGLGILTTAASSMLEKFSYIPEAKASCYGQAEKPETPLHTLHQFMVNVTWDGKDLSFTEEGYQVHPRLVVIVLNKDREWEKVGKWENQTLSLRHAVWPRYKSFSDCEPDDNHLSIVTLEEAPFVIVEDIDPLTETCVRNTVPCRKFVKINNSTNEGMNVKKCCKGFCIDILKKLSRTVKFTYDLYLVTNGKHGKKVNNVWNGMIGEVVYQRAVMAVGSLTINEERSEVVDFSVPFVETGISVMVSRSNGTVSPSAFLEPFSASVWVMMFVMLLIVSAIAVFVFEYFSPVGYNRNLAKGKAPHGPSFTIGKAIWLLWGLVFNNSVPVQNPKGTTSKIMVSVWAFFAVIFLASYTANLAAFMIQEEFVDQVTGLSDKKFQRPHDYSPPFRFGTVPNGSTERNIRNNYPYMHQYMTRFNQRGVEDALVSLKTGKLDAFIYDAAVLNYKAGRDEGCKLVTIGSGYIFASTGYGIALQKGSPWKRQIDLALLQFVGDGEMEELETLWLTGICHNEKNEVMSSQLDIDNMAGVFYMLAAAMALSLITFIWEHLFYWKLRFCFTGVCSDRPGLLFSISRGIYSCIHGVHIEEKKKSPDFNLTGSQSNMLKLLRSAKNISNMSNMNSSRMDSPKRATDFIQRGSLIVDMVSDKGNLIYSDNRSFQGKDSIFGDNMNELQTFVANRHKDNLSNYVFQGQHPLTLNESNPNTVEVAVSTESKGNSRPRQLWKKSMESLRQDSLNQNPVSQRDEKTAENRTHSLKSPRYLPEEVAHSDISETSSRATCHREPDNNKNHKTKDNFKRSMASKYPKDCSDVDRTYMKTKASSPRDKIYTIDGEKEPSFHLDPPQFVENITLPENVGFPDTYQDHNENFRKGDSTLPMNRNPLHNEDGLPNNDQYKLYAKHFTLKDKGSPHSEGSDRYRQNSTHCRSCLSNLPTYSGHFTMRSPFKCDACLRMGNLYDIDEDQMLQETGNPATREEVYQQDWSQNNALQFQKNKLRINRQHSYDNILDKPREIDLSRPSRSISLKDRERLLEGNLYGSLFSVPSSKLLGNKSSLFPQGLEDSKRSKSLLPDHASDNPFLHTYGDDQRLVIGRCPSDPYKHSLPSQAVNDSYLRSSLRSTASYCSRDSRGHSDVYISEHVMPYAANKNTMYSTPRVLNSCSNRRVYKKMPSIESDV

In the case of `OC(CCc1ccccc1)CN1CCC(Cc2ccccc2)CC1` (stereo not drawn) [Ex. 4, 4-Benzyl-1-[(2-hydroxy-4-phenyl)butyl]piperidine], the pIC50 in assay [1] was less than 4.00; in assay [2] (setting [4]) it was 5.05; in assay [3] (setting [5]) it was less than 4.00.

Turning to `c1ccc(OCCCN2CCC(c3ccccc3)CC2)cc1` [Ex. 7, 1-(3-Phenoxypropyl)-4-phenylpiperidine], the figures for the pIC50 in assay [1], in assay [2] (setting [4]) and in assay [3] (setting [5]) were less than 4.00, 5.00 and less than 4.00, respectively.

Consider `c1ccc(OCCCCN2CCC(c3ccccc3)CC2)cc1` [Ex. 9, 1-(4-Phenoxybutyl)-4-phenylpiperidine], for which the values for the pIC50 in assay [1], in assay [2] (setting [4]) and in assay [3] (setting [5]) were less than 4.00, 5.00 and less than 4.00, respectively.

Consider `Clc1ccc(OCCN2CCC(Cc3ccccc3)CC2)cc1` [Ex. 11, 4-Benzyl-1-(2-(4-chlorophenoxy)ethyl)piperidine hydrochloride], for which the pIC50 in assay [2] (setting [4]) is 5.00; in assay [3] (setting [5]), less than 4.00.

In the case of `O=[N+]([O-])c1ccc(OCCN2CCC(Cc3ccccc3)CC2)cc1` [Ex. 12, 4-Benzyl-1-(2-(4-nitrophenoxy)ethyl)piperidine hydrobromide], the pIC50 is 5.22 in assay [2] (setting [4]) and less than 4.00 in assay [3] (setting [5]).

In the case of `N#Cc1ccc(OCCN2CCC(Cc3ccccc3)CC2)cc1` [Ex. 14, 4-Benzyl-1-(2-(4-cyanophenoxy)ethyl)piperidine], the pIC50 is 5.52 in assay [2] (setting [4]) and less than 4.00 in assay [3] (setting [5]).

Take `CCOC(=O)Cc1cccc(OCCN2CCC(Cc3ccccc3)CC2)c1` [Ex. 17, 4-Benzyl-1-(2-(3-(ethoxycarbonylmethyl)phenoxy)ethyl)piperidine]: the pIC50 in assay [2] (setting [4]) was 5.52; in assay [3] (setting [5]), less than 4.00.

`NNC(=O)Cc1cccc(OCCN2CCC(Cc3ccccc3)CC2)c1` [Ex. 20, 4-Benzyl-1-(2-(3-(hydrazinocarbonylmethyl)phenoxy)ethyl)piperidine]: the pIC50 in assay [1] was 5.26; in assay [2] (setting [4]), 6.15; in assay [3] (setting [5]), less than 4.00.

For `Clc1ccc(CC2CCN(CCOc3ccc(Cl)cc3)CC2)cc1` [Ex. 26, 4-(4-Chlorobenzyl)-1-(2-(4-chlorophenoxyethyl)piperidine hydrochloride], the pIC50 in assay [2] (setting [4]) is 4.92; in assay [3] (setting [5]) it was less than 4.00.

Turning to `OCCc1cccc(OCCN2CCC(Cc3ccc(Cl)cc3)CC2)c1` [Ex. 29, 4-(4-Chlorobenzyl)-1-(2-(3-(2-hydroxyethyl)phenoxy)ethyl)piperidine], the pIC50 in assay [2] (setting [4]) is 6.30; in assay [3] (setting [5]), less than 4.00.

`Fc1ccc(CC2CCN(CCOc3ccc(Cl)cc3)CC2)cc1` [Ex. 34, 4-(4-Fluorobenzyl)-1-(2-(4-chlorophenoxy)ethyl)piperidine hydrochloride]: the values for the pIC50 in assay [2] (setting [4]) and in assay [3] (setting [5]) were 4.82 and less than 4.00, respectively.

Regarding `COc1ccc(CC2CCN(CCOc3ccc(F)cc3)CC2)cc1` [Ex. 35, 1-(2-(4-Fluorophenoxy)ethyl)-4-(4-methoxybenzyl)piperidine hydrochloride], the pIC50 is 5.40 in assay [2] (setting [4]) and less than 4.00 in assay [3] (setting [5]).

With `Fc1ccc(NC2CCN(CCOc3ccc(F)cc3)CC2)cc1` [Ex. 39, 1-(2-(4-Fluorophenoxy)ethyl)-4-(N-(4-fluoroanilino)piperidine hydrochloride], the pIC50 in assay [2] (setting [4]) was 4.22; in assay [3] (setting [5]), less than 4.00.

As to `OC1CN(CCCOc2ccccc2)CCC1c1cccc(C(F)(F)F)c1` (stereo not drawn) [Ex. 46, 3-Hydroxy-1-(3-phenoxypropyl)-4-(3-trifluoromethylphenyl)piperidine hydrochloride], the results for the pIC50 in assay [2] (setting [4]) and in assay [3] (setting [5]) were 5.82 and less than 4.00, respectively.

With `OC1(Cc2ccccc2)CCN(CCCOc2ccccc2)CC1` [Ex. 48, 4-Benzyl-4-hydroxy-1-(3-phenoxypropyl)piperidine], the values for the pIC50 in assay [2] (setting [4]) and in assay [3] (setting [5]) were 4.66 and less than 4.00, respectively.

For the compound `ClCCN1CCC(Cc2ccccc2)CC1` [Ex. 49, 4-Benzyl-1-(2-chloroethyl)piperidine], the values for the pIC50 in assay [2] and in assay [3] were 5.30 and less than 4.00, respectively.

In the case of `O=[N+]([O-])c1ccccc1OCCN1CCC(Cc2ccccc2)CC1` [Ex. 60, 4-Benzyl-1-[2-(2-nitrophenoxy)ethyl]piperidine], the pIC50 in assay [2] (setting [4]) was 5.22; in assay [3] (setting [5]), less than 4.00.

For the compound `c1ccc(CC2CCN(CCOc3ncnc4ccccc34)CC2)cc1` [Ex. 66], the pIC50 was 5.00 in assay [2] (setting [4]) and less than 4.00 in assay [3] (setting [5]).

For the compound `COc1ccccc1OCCN1CCC(Cc2ccccc2)CC1` [Ex. 68, 4-Benzyl-1-[2-(2-methoxyphenoxy)ethyl]piperidine], the values for the pIC50 in assay [2] (setting [4]) and in assay [3] (setting [5]) were 5.30 and less than 4.00, respectively.

For the compound `CC(=O)Nc1ccc(OCCN2CCC(Cc3ccccc3)CC2)cc1NC(C)=O` [Ex. 71A, 4-Benzyl-1-[2-(3,4-bisacetamidophenoxy)ethyl]piperidine], the pIC50 is 4.70 in assay [2] (setting [4]) and less than 4.00 in assay [3] (setting [5]).

As for `Cc1nc2cc(OCCN3CCC(Cc4ccccc4)CC3)ccc2[nH]1` [Ex. 71C, 4-Benzyl-1-[2-(2-methylbenzimidazol-5-oxy)ethyl]piperidine], the figures for the pIC50 in assay [2] (setting [4]) and in assay [3] (setting [5]) were 5.10 and less than 4.00, respectively.

Turning to `c1ccc(CCCN2CCC(Cc3ccccc3)CC2)cc1` [Ex. 84, 4-Benzyl-1-(3-phenylpropyl)piperidine hydrochloride], the pIC50 in assay [2] (setting [4]) is 5.66; in assay [3] (setting [5]), less than 4.00.

In the case of `OC1(Cc2ccccc2)CCN(CCCc2ccccc2)CC1` [Ex. 91, 4-Benzyl-4-hydroxy-1-(3-phenylpropyl)piperidine hydrochloride], the pIC50 in assay [2] (setting [4]) was 4.66; in assay [3] (setting [5]), less than 4.00.

For `Fc1ccc(OCCN2CCC(Cc3ccc4c(c3)CCCC4)CC2)cc1` [Ex. 140, 1-(2-(4-Fluorophenoxy)ethyl)-4-((5,6,7,8-tetrahydro-2-naphthyl)methyl)piperidine hydrochloride], the pIC50 in assay [1] was 4.10; in assay [2] (setting [4]) it was 4.55.

`Oc1ccc(OCCN2CCC(Cc3ccc4ccccc4c3)CC2)cc1` [Ex. 141, 1-(2-(4-Hydroxyphenoxy)ethyl)-4-((2-naphthyl)methyl)piperidine hydrochloride]: the pIC50 in assay [2] (setting [4]) is 7.00; in assay [3] (setting [5]), 4.05.

For the compound `Oc1ccccc1OCCN1CCC(Cc2ccc(F)cc2)CC1` [Ex. 158, 4-(4-Fluorobenzyl)-1-[2-(2-hydroxyphenoxy)ethyl]piperidine hydrochloride], the pIC50 was 6.52 in assay [2] (setting [4]) and 3.72 in assay [3] (setting [5]).

With `Oc1ccc(OCCN2CCC(O)(Cc3ccccc3)CC2)cc1` [Ex. 164, 4-Benzyl-4-hydroxy-1-[2-(4-hydroxyphenoxy)ethyl]piperidine hydrochloride], the results for the pIC50 in assay [2] (setting [4]) and in assay [3] (setting [5]) were 6.92 and less than 3.52, respectively.

Turning to `Cn1c(=O)[nH]c2ccc(OCCN3CCC(Cc4ccccc4)CC3)cc21` [Ex. 193, 4-Benzyl-1-(2-(3-methyl-2-oxobenzamidazol-5-oxy)ethyl)piperidine], the figures for the pIC50 in assay [2] (setting [4]) and in assay [3] (setting [5]) were 6.70 and less than 3.52, respectively.
